This is an account of results in patent US7175872B2, “Pyridinium-Betain compounds for use as taste modulators” (Nestec S.A., priority 2002, dated 2007).

What all share (assay type): in vivo
One assay deals with umami taste of MSG. Put plainly: Umami taste detection threshold of MSG/Pyridinium-Betaine mixtures (triangle test, sensory panel). As to the method: • Sensory panel training: […] Sensory analyses were performed in a sensory panel room at 22-25° C. on three different sessions. • Taste thresholds: The taste thresholds of the tastants or mixtures containing basic tastants plus Pyridinium-Betains were determined in a triangle test using Evian® mineral water as the solvent at a defined pH ([…] and H.-D. Belitz, Z. Lebensm. Unters. Forsch. 1975, 159, 65-72). The samples (3 mL) were presented in order of increasing concentrations (serial 1:1 dilutions). The threshold values evaluated in two different sessions were averaged. […] The taste intensities of aqueous (Evian®) solutions containing a basic tastant, such as glucose and MSG, for example, in constant concentrations and the compounds of the general formula (A), for example […], in various concentrations were compared with those of a solution containing the basic tastant only. To achieve this, triangle tests were performed with two glass vials containing the basic tastant in constant concentrations, and one glass vial containing a stepwise 1:1-diluted mixture of basic […]. […] The relative taste strength (taste enhancing factor) of a mixture containing the basic […] was related to the basic tastants glucose, MSG, or other tastants, respectively, as standard substances, and was determined as the ratio of the concentrations c of iso-intensely tasting solutions of the basic tastant, such as glucose (glc), and the mixture containing tastant plus Pyridinium-Betain, […])=[…] […] This taste enhancing effect is illustrated in examples. Pyridinium-Betaines not only enhance the sweet taste perception, but also the umami taste.

The next assay has as its system sweet taste of glucose. Kind of assay: Sweet taste detection threshold of glucose/Pyridinium-Betaine mixtures (triangle test, sensory panel). The note with it: equimolar mixture with glucose, pH 7.0; for Threshold decrease: vs glucose in water 50.0 mmol/L. The procedure: • Sensory panel training: […] Sensory analyses were performed in a sensory panel room at 22-25° C. on three different sessions. • Taste thresholds: The taste thresholds of the tastants or mixtures containing basic tastants plus Pyridinium-Betains were determined in a triangle test using Evian® mineral water as the solvent at a defined pH ([…] and H.-D. Belitz, Z. Lebensm. Unters. Forsch. 1975, 159, 65-72). The samples (3 mL) were presented in order of increasing concentrations (serial 1:1 dilutions). The threshold values evaluated in two different sessions were averaged. […] The taste intensities of aqueous (Evian®) solutions containing a basic tastant, such as glucose and MSG, for example, in constant concentrations and the compounds of the general formula (A), for example […], in various concentrations were compared with those of a solution containing the basic tastant only. To achieve this, triangle tests were performed with two glass vials containing the basic tastant in constant concentrations, and one glass vial containing a stepwise 1:1-diluted mixture of basic […]. […] The relative taste strength (taste enhancing factor) of a mixture containing the basic […] was related to the basic tastants glucose, MSG, or other tastants, respectively, as standard substances, and was determined as the ratio of the concentrations c of iso-intensely tasting solutions of the basic tastant, such as glucose (glc), and the mixture containing tastant plus Pyridinium-Betain, […])=[…] This taste enhancing effect is illustrated in examples. The sweet taste thresholds of equimolar mixtures of sweet tasting compounds and various Pyridinium-Betaines were determined by a triangle test using EVIAN® mineral water as the solvent. The sensorial evaluations were performed at different pH values. The equimolar mixture of […] and sucrose at pH 7.0 was evaluated with a 4-fold lower sweet threshold concentration than pure sucrose (Table 1). […] is able to reduce the sweet threshold of glucose 16-fold at pH 7.0 and pH 9.0, whereas at pH 5.0 a gain the sweet taste perception […] (Table 2). […] Using the dipeptide derivative (S)-[…] as a taste-enhancer leads to a 16-fold threshold reduction compared to glucose.

The subject of a further assay is sweet taste of sucrose. Kind of assay: Sweet taste detection threshold of sucrose/Pyridinium-Betaine mixtures (triangle test, sensory panel). Set-up: key to Threshold decrease: fold decrease of sweet threshold vs pure sucrose. As to the method: • Sensory panel training: […] Sensory analyses were performed in a sensory panel room at 22-25° C. on three different sessions. • Taste thresholds: The taste thresholds of the tastants or mixtures containing basic tastants plus Pyridinium-Betains were determined in a triangle test using Evian® mineral water as the solvent at a defined pH ([…] and H.-D. Belitz, Z. Lebensm. Unters. Forsch. 1975, 159, 65-72). The samples (3 mL) were presented in order of increasing concentrations (serial 1:1 dilutions). The threshold values evaluated in two different sessions were averaged. […] The taste intensities of aqueous (Evian®) solutions containing a basic tastant, such as glucose and MSG, for example, in constant concentrations and the compounds of the general formula (A), for example […], in various concentrations were compared with those of a solution containing the basic tastant only. To achieve this, triangle tests were performed with two glass vials containing the basic tastant in constant concentrations, and one glass vial containing a stepwise 1:1-diluted mixture of basic […]. […] The relative taste strength (taste enhancing factor) of a mixture containing the basic […] was related to the basic tastants glucose, MSG, or other tastants, respectively, as standard substances, and was determined as the ratio of the concentrations c of iso-intensely tasting solutions of the basic tastant, such as glucose (glc), and the mixture containing tastant plus Pyridinium-Betain, […])=[…] This taste enhancing effect is illustrated in examples. The sweet taste thresholds of equimolar mixtures of sweet tasting compounds and various Pyridinium-Betaines were determined by a triangle test using EVIAN® mineral water as the solvent. The sensorial evaluations were performed at different pH values. The equimolar mixture of […] and sucrose at pH 7.0 was evaluated with a 4-fold lower sweet threshold concentration than pure sucrose (Table 1).

A further assay deals with salty taste of NaCl. Put plainly: Salt taste detection threshold of NaCl/Pyridinium-Betaine mixtures (triangle test, sensory panel). As to the method:
• Sensory panel training: […] Sensory analyses were performed in a sensory panel room at 22-25° C. on three different sessions. • Taste thresholds: The taste thresholds of the tastants or mixtures containing basic tastants plus Pyridinium-Betains were determined in a triangle test using Evian® mineral water as the solvent at a defined pH ([…] and H.-D. Belitz, Z. Lebensm. Unters. Forsch. 1975, 159, 65-72). The samples (3 mL) were presented in order of increasing concentrations (serial 1:1 dilutions). The threshold values evaluated in two different sessions were averaged. […] The taste intensities of aqueous (Evian®) solutions containing a basic tastant, such as glucose and MSG, for example, in constant concentrations and the compounds of the general formula (A), for example […], in various concentrations were compared with those of a solution containing the basic tastant only. […] The relative taste strength (taste enhancing factor) of a mixture containing the basic […] was related to the basic tastants glucose, MSG, or other tastants, respectively, as standard substances, and was determined as the ratio of the concentrations c of iso-intensely tasting solutions of the basic tastant, such as glucose (glc), and the mixture containing tastant plus Pyridinium-Betain, […])=[…] […] This taste enhancing effect is illustrated in examples.

The mark [1] stands for this setting: equimolar mixture with MSG, pH 7.0.
Setting [2] is: equimolar mixture with MSG, pH 7.0, vs MSG in water 1.5 mmol/L.
Where [3] appears, read: sweet, vs sucrose alone (Table 10).
[4] abbreviates: equimolar mixture with sucrose, pH 7.0.
Setting [5] is: equimolar mixture with sucrose, pH 9.0.
The mark [6] stands for this setting: equimolar mixture with sucrose, pH 9.0, vs sucrose in water 12.5 mmol/L.
Setting [7] is: umami, MSG and mixtures with Alapyridaine enantiomers (Table 9), pH not stated.

Structures are written as SMILES. Counter-ions that a name gives are not always drawn.

On to `O=C(C[n+]1cc(O)ccc1CO)N[C@@H](Cc1ccccc1)C(=O)[O-]` [(S)-GlyPhepyridaine, (S)-N-[N(1-carboxy-2-phenyl-ethyl)-carboxamido-methyl]-3-hydroxy-6-hydroxymethyl-pyridinium inner salt], for which, in the assay on umami taste of MSG (setting [1]), the Taste quality entry is given as “umami” and the Umami detection threshold turned out to be 0.2 mmol/kg water. Further, in the assay with umami taste of MSG (setting [2]), the Threshold decrease was found to be 8.0. In addition, in the assay on sweet taste of glucose, the Sweet detection threshold was found to be 3.0 mmol/kg water, the Taste quality result is given as “sweet” and the Threshold decrease was determined as 16.
As to `OC[C@H]1O[C@@](CO)(O[C@H]2O[C@H](CO)[C@@H](O)[C@H](O)[C@H]2O)[C@@H](O)[C@@H]1O` [Sucrose, sucrose, reference compound], the “threshold of sucrose in water” value in the assay on sweet taste of sucrose (sucrose alone) is recorded as “^aThe threshold of sucrose in water is 12.5 mmol/L”. Further, the Taste quality entry with sweet taste of sucrose (sucrose and mixtures with Alapyridaine enantiomers (Table 10), pH not stated) is given as “sweet”. Further, the Detection threshold with sweet taste of sucrose (sweet, sucrose and mixtures with Alapyridaine enantiomers (Table 10), pH not stated) was found to be 12.5 mmol/kg water.
Consider `C[C@H](C(=O)[O-])[n+]1cc(O)ccc1CO` [(−)-(R)-Alapyridaine, (R)-N-(1-carboxyethyl)-3-hydroxy-6-hydroxymethyl-pyridinium inner salt], for which the Threshold decrease entry in the assay on umami taste of MSG (umami, vs MSG alone (Table 9)) is “does not have any taste enhancing impact”; in the assay on salty taste of NaCl (salty, vs NaCl alone (Table 11)), “did not alter the taste of the aqueous salt solution”; in the assay on sweet taste of sucrose (setting [3]) it was “does not alter the sweet taste perception of sucrose”.
Turning to `O=C([O-])[C@H](Cc1ccccc1)[n+]1cc(O)ccc1CO` [Phepyridaine], the Taste quality entry is “umami” in the assay with umami taste of MSG (setting [1]); “sweet” in the assay with sweet taste of glucose; “salty” in the assay on salty taste of NaCl (mixture with NaCl, pH 7.0); “sweet” in the assay on sweet taste of sucrose (setting [4]); “sweet” in the assay with sweet taste of sucrose (setting [5]). Further, the Umami detection threshold in the assay with umami taste of MSG (setting [1]) is recorded as 0.4 mmol/kg water. The Threshold decrease turned out to be 4.0 with umami taste of MSG (setting [2]); 16.0 with sweet taste of glucose; 5.0 in the assay on salty taste of NaCl (mixture with NaCl, pH 7.0, vs NaCl in water 10.0 mmol/L); 4.0 in the assay on sweet taste of sucrose (equimolar mixture with sucrose, pH 7.0, vs sucrose in water 12.5 mmol/L); 8.0 with sweet taste of sucrose (setting [6]). Moreover, the Sweet detection threshold in the assay with sweet taste of glucose is listed as 3.0 mmol/kg water; in the assay with sweet taste of sucrose (setting [4]) it was 3.0 mmol/kg water; in the assay on sweet taste of sucrose (setting [5]), 1.5 mmol/kg water. In the assay with salty taste of NaCl (mixture with NaCl, pH 7.0), the Salt detection threshold turned out to be 2.0 mmol/kg water. Also, the “concentration above which a rubber-like off-taste is imparted” value with sweet taste of sucrose (mixture with sucrose) is “above 3 mmol/kg”. The “concentration above which the sweetness is associated with a rubber-like taste” value in the assay with sweet taste of sucrose (mixture with sucrose) is “^bThe sweetness is associated with a rubber-like taste in concentrations higher than 3 mmol/L”.
On to `C[C@@H](C(=O)[O-])[n+]1cc(O)ccc1CO` [(+)-(S)-Alapyridaine, (S)-N-(1-carboxyethyl)-3-hydroxy-6-hydroxymethyl-pyridinium inner salt], for which the Detection threshold with umami taste of MSG (setting [7]) turned out to be 0.2 mmol/kg water. Besides, the Threshold decrease in the assay with sweet taste of sucrose (setting [3]) worked out at 8.
For `O=C(O)CCC(C(=O)[O-])[n+]1cc(O)ccc1CO` (stereo not drawn) [Glupyridaine, N-(1,3-dicarboxypropyl)-3-hydroxy-6-hydroxymethyl-pyridinium inner salt], the Taste quality entry with umami taste of MSG (setting [1]) is on record as “umami”; in the assay with sweet taste of sucrose (setting [4]), “sweet”; with sweet taste of sucrose (setting [5]) it was “sweet”. Also, the Umami detection threshold in the assay with umami taste of MSG (setting [1]) was 0.4 mmol/kg water. In addition, the Threshold decrease with umami taste of MSG (setting [2]) is 4.0; in the assay with sweet taste of sucrose (setting [6]) it was 2. In addition, the Sweet detection threshold with sweet taste of sucrose (setting [4]) is 12.0 mmol/kg water; in the assay with sweet taste of sucrose (setting [5]), 6.0 mmol/kg water.
As for `N[C@@H](CCC(=O)O)C(=O)[O-].[Na+]` [MSG, monosodium glutamate, reference compound], the “threshold of MSG in water” value with umami taste of MSG (MSG alone) is on record as “^aThe threshold of MSG in water is 1.5 mmol/L”. For the same molecule, the Taste quality entry with umami taste of MSG (MSG and mixtures with Alapyridaine enantiomers (Table 9), pH not stated) is recorded as “umami”. Besides, the Detection threshold in the assay on umami taste of MSG (setting [7]) came out at 1.5 mmol/kg water.
